Assay results taken from DBAASP.
In brackets after ≈: the same amount, converted by molar mass. One block for each compound: values may come before it.

Tests used:
Experiment in all cases: ≥ marks a high value that may be exact or a test limit, other limits are often not marked, values filed in µg/mL are converted to µM
Acinetobacter baumannii = system: Acinetobacter baumannii
[1] = system: Bacillus cereus ATCC 11778
[2] = system: Enterococcus faecalis ATCC 29212
[3] = system: Escherichia coli ATCC 25922
Escherichia coli O157:H7 = system: Escherichia coli O157:H7
[4] = system: Listeria monocytogenes 10403s
[5] = system: Pseudomonas aeruginosa ATCC 27853
[6] = system: Salmonella enterica subsp. enterica serovar Typhimurium ATCC 13311
[7] = system: Shigella sonnei ATCC 11060
[8] = system: Staphylococcus aureus ATCC 25923
[9] = system: Staphylococcus epidermidis ATCC 12228
Vibrio cholerae O1 Inaba = system: Vibrio cholerae O1 Inaba
[10] = system: Candida albicans ATCC 36232
[11] = system: Escherichia coli ATCC 2592
[12] = system: Micrococcus luteus ATCC 9341
[13] = system: Proteus vulgaris ATCC 6380
[14] = system: Pseudomonas aeruginosa ATCC 9027
[15] = system: Staphylococcus aureus ATCC 6538
Staphylococcus aureus = system: Staphylococcus aureus
Escherichia coli W3110 = system: Escherichia coli W3110
[16] = system: Klebsiella pneumoniae ATCC BAA-1705
Pseudomonas aeruginosa 1 = system: Pseudomonas aeruginosa 1
Pseudomonas aeruginosa = system: Pseudomonas aeruginosa
[17] = system: Bacillus megaterium ATCC 10778
[18] = system: Bacillus subtilis ATCC 6633
Candida albicans MDM8 = system: Candida albicans MDM8
[19] = system: Candida tropicalis IOC 4560
[20] = system: Enterobacter cloacae beta-12
Escherichia coli SBS 363 = system: Escherichia coli SBS 363
Micrococcus luteus A270 = system: Micrococcus luteus A270
[21] = system: Serratia marcescens ATCC 4112
[22] = system: Staphylococcus aureus ATCC 29213
[23] = system: Candida albicans ATCC 10231
[24] = system: Klebsiella aerogenes ATCC 13048
[25] = system: Staphylococcus aureus ATCC 29231
[26] = system: Staphylococcus aureus MW2

MIC (Acinetobacter baumannii): 2.11 µM (≈ 3.91 µg/mL)
MIC [1]: 4.22 µM (≈ 7.81 µg/mL)
MIC [2]: 67.6 µM (≈ 125 µg/mL)
MIC [3]: 8.45 µM (≈ 15.6 µg/mL)
MIC (Escherichia coli O157:H7): ≥ 33.8 µM
MIC [4]: 1.05 µM (≈ 1.95 µg/mL)
MIC [5]: 2.11 µM (≈ 3.91 µg/mL)
MIC [6]: 1.05 µM (≈ 1.95 µg/mL)
MIC [7]: 2.11 µM (≈ 3.91 µg/mL)
MIC [8]: 8.45 µM (≈ 15.6 µg/mL)
MIC [9]: 2.11 µM (≈ 3.91 µg/mL)
Structure (SMILES): CC[C@H](C)[C@H](NC(=O)[C@H](CCCN=C(N)N)NC(=O)[C@H](CCCCN)NC(=O)[C@H](C)NC(=O)[C@@H](NC(=O)[C@@H](N)CCCCN)[C@@H](C)CC)C(=O)N[C@@H](Cc1c[nH]c2ccccc12)C(=O)N[C@@H](CCCCN)C(=O)N[C@H](C(=O)N[C@@H](CC(C)C)C(=O)N[C@@H](CCCN=C(N)N)C(=O)N[C@@H](CCCN=C(N)N)C(=O)N[C@@H](CCCN=C(N)N)C(=O)N[C@@H](CC(C)C)C(N)=O)[C@@H](C)CC [KIAKRIWKILRRRL]
MIC (Vibrio cholerae O1 Inaba): 4.22 µM (≈ 7.81 µg/mL)

MIC (Acinetobacter baumannii): 4.5 µM (≈ 7.81 µg/mL)
MIC [1]: 9 µM (≈ 15.6 µg/mL)
MIC [2]: 144 µM (≈ 250 µg/mL)
MIC [3]: 18 µM (≈ 31.2 µg/mL)
MIC (Escherichia coli O157:H7): 18 µM (≈ 31.2 µg/mL)
MIC [4]: 2.25 µM (≈ 3.91 µg/mL)
MIC (Pseudomonas aeruginosa 1): 2.25 µM (≈ 3.91 µg/mL)
MIC (Pseudomonas aeruginosa): 4.5 µM (≈ 7.81 µg/mL)
MIC [6]: 1.12 µM (≈ 1.95 µg/mL)
MIC [7]: 2.25 µM (≈ 3.91 µg/mL)
MIC [8]: 36 µM (≈ 62.5 µg/mL)
MIC [9]: 2.25 µM (≈ 3.91 µg/mL)
Structure (SMILES): CC[C@H](C)[C@H](NC(=O)[C@H](CCCN=C(N)N)NC(=O)[C@H](CCCCN)NC(=O)[C@H](C)NC(=O)[C@@H](NC(=O)[C@@H](N)CCCCN)[C@@H](C)CC)C(=O)N[C@@H](Cc1c[nH]c2ccccc12)C(=O)N[C@@H](CCCCN)C(=O)N[C@H](C(=O)N[C@@H](CC(C)C)C(=O)N[C@@H](CCCN=C(N)N)C(=O)N[C@@H](CCCN=C(N)N)C(=O)N[C@@H](CCCN=C(N)N)C(N)=O)[C@@H](C)CC [KIAKRIWKILRRR]
MIC (Vibrio cholerae O1 Inaba): 18 µM (≈ 31.2 µg/mL)

MIC [23]: 29.3 µM (≈ 64 µg/mL)
MIC [24]: ≥ 58.6 µM
MIC [25]: 7.33 µM (≈ 16 µg/mL)
MIC [26]: 14.7 µM (≈ 32 µg/mL)
Structure (SMILES): CC[C@H](C)[C@H](NC(=O)[C@H](CCCCN)NC(=O)[C@H](CCCCN)NC(=O)[C@H](CC(C)C)NC(=O)[C@@H](NC(=O)[C@H](CCCCN)NC(=O)[C@H](Cc1c[nH]c2ccccc12)NC(=O)[C@@H](N)CC(C)C)[C@@H](C)CC)C(=O)N[C@@H](Cc1c[nH]c2ccccc12)C(=O)N[C@@H](CCCN=C(N)N)C(=O)N[C@H](C(=O)NCC(=O)N[C@@H](Cc1c[nH]c2ccccc12)C(=O)N[C@@H](CC(N)=O)C(=O)N[C@@H](Cc1c[nH]c2ccccc12)C(=O)N[C@@H](CCCN=C(N)N)C(=O)O)C(C)C [LWKILKKIWRVGWNWR]

Continued, compound first:

Structure (SMILES): CC(C)C[C@H](NC(=O)[C@H](CCCCN)NC(=O)[C@H](Cc1ccccc1)NC(=O)[C@H](CC(C)C)NC(=O)[C@@H](NC(=O)[C@H](CCCCN)NC(=O)[C@@H](N)CCCCN)C(C)C)C(=O)N[C@@H](CCCCN)C(=O)N[C@@H](Cc1ccccc1)C(=O)N[C@@H](CCCCN)C(N)=O [KKVLFKLKFK]
MIC [10]: 2.44 µM (≈ 3.12 µg/mL)
MIC [11]: 2.44 µM (≈ 3.12 µg/mL)
MIC [12]: 2.44 µM (≈ 3.12 µg/mL)
MIC [13]: ≥ 78.2 µM
MIC [14]: 1.22 µM (≈ 1.56 µg/mL)
MIC [15]: 9.78 µM (≈ 12.5 µg/mL)
MIC (Staphylococcus aureus): 19.6 µM (≈ 25 µg/mL)

Structure (SMILES): CC[C@H](C)[C@H](NC(=O)[C@H](CCCCN)NC(=O)[C@H](CCCCN)NC(=O)[C@H](Cc1ccc(O)cc1)NC(=O)[C@H](CCCCN)NC(=O)[C@H](CC(C)C)NC(=O)[C@H](CC(C)C)NC(=O)[C@H](CCCCN)NC(=O)[C@H](CC(C)C)NC(=O)CNC(=O)[C@H](Cc1c[nH]c2ccccc12)NC(=O)[C@H](CCCCN)NC(=O)[C@H](C)NC(=O)[C@H](Cc1c[nH]c2ccccc12)NC(=O)[C@H](CCCN=C(N)N)NC(=O)[C@@H](N)Cc1c[nH]c2ccccc12)C(=O)N[C@@H](Cc1ccc(O)cc1)C(=O)O [WRWAKWGLKLLKYKKIY]
MIC (Escherichia coli W3110): 1 µM (≈ 2.28 µg/mL)
MIC [16]: 2 µM (≈ 4.56 µg/mL)

Structure (SMILES): CC[C@H](C)[C@H](N)C(=O)N[C@@H](CC(C)C)C(=O)N[C@@H](Cc1c[nH]c2ccccc12)C(=O)N[C@@H](C)C(=O)N[C@@H](CS)C(=O)N[C@@H](Cc1c[nH]c2ccccc12)C(=O)NCC(=O)N[C@@H](CC(C)C)C(=O)N[C@@H](CCCCN)C(=O)N[C@@H](CC(C)C)C(=O)N[C@@H](CC(C)C)C(=O)N[C@@H](CCCCN)C(=O)N[C@@H](Cc1ccc(O)cc1)C(=O)N[C@@H](CCCCN)C(=O)N[C@@H](CCCCN)C(=O)N[C@H](C(=O)N[C@@H](Cc1ccc(O)cc1)C(=O)O)[C@@H](C)CC [ILWACWGLKLLKYKKIY]
MIC (Escherichia coli W3110): 16 µM (≈ 34.2 µg/mL)
MIC [16]: ≥ 128 µM

Structure (SMILES): CC(C)C[C@H](NC(=O)[C@H](C)NC(=O)CNC(=O)[C@H](CC(C)C)NC(=O)[C@@H](N)Cc1ccccc1)C(=O)N[C@@H](Cc1c[nH]c2ccccc12)C(=O)N[C@@H](CC(N)=O)C(=O)N[C@H](C(=O)N[C@@H](CC(C)C)C(=O)N[C@@H](CCCCN)C(=O)N[C@@H](CO)C(=O)N[C@H](C(=O)N[C@@H](Cc1ccccc1)C(N)=O)C(C)C)C(C)C [FLGALWNVLKSVF]
MIC [17]: 3.1 µM (≈ 4.63 µg/mL)
MIC [18]: 0.8 µM (≈ 1.19 µg/mL)
MIC (Candida albicans MDM8): 3.1 µM (≈ 4.63 µg/mL)
MIC [19]: 3.1 µM (≈ 4.63 µg/mL)
MIC [20]: ≥ 50 µM
MIC (Escherichia coli SBS 363): 0.8 µM (≈ 1.19 µg/mL)
MIC (Micrococcus luteus A270): 0.4 µM (≈ 0.597 µg/mL)
MIC [5]: > 50 µM
MIC [21]: 0.4 µM (≈ 0.597 µg/mL)
MIC [22]: 0.8 µM (≈ 1.19 µg/mL)

Structure (SMILES): CC(C)C[C@H](NC(=O)[C@H](C)NC(=O)CNC(=O)[C@H](CC(C)C)NC(=O)[C@@H](N)Cc1ccccc1)C(=O)N[C@@H](Cc1c[nH]c2ccccc12)C(=O)N[C@@H](CC(N)=O)C(=O)N[C@H](C(=O)N[C@@H](C)C(=O)N[C@@H](CCCCN)C(=O)N[C@@H](CCCN=C(N)N)C(=O)N[C@H](C(=O)N[C@@H](Cc1ccccc1)C(N)=O)C(C)C)C(C)C [FLGALWNVAKRVF]
MIC [17]: 0.8 µM (≈ 1.22 µg/mL)
MIC [18]: 1.6 µM (≈ 2.43 µg/mL)
MIC (Candida albicans MDM8): 3.1 µM (≈ 4.71 µg/mL)
MIC [19]: 1.6 µM (≈ 2.43 µg/mL)
MIC [20]: 6.3 µM (≈ 9.58 µg/mL)
MIC (Escherichia coli SBS 363): 1.6 µM (≈ 2.43 µg/mL)
MIC (Micrococcus luteus A270): 1.6 µM (≈ 2.43 µg/mL)
MIC [5]: 12.5 µM (≈ 19 µg/mL)
MIC [21]: 0.8 µM (≈ 1.22 µg/mL)
MIC [22]: 3.1 µM (≈ 4.71 µg/mL)

Structure (SMILES): CC(C)C[C@H](NC(=O)[C@H](CCCCN)NC(=O)[C@H](Cc1ccccc1)NC(=O)[C@H](CC(C)C)NC(=O)[C@H](CC(C)C)NC(=O)[C@H](CCCCN)NC(=O)[C@@H](N)CCCCN)C(=O)N[C@@H](CCCCN)C(=O)N[C@@H](Cc1ccccc1)C(=O)N[C@@H](CCCCN)C(N)=O [KKLLFKLKFK]
MIC [10]: 2.41 µM (≈ 3.12 µg/mL)
MIC [11]: 2.41 µM (≈ 3.12 µg/mL)
MIC [12]: 2.41 µM (≈ 3.12 µg/mL)
MIC [13]: ≥ 77.4 µM
MIC [14]: 1.21 µM (≈ 1.56 µg/mL)
MIC [15]: 9.67 µM (≈ 12.5 µg/mL)
MIC (Staphylococcus aureus): 38.7 µM (≈ 50 µg/mL)
